Test results published in patent publication US10765754B2, “Compositions and methods related to inhibition of respiratory syncytial virus entry” (priority 2015, dated 2020).
Like-named read-outs stand apart in the source and are kept apart here. Starred links: 1 amine or outer side, 2 acyl side, 3 side chain; linkers in the order of their positions; H or OH if unused. Positions of bridges follow the written chain, without caps; N, C: chain ends. Non-standard residues stand in square brackets, D forms with d. Residues, ends and D or L forms follow the SMILES beside them. Chains are numbered I, II in the order given. X1 = NCCOCCOCCOCCOCCOCCOCCOCCOCCOCCOCCOCCOCCOCCOCCOCCOCCOCCOCCOCCOCCOCCOCCOCCOCCOCCOCCOCCOCCC(=O)NC(CCC(=O)[*:1])(CCC(=O)[*:2])CCC(=O)[*:3]; PEG6 = NCCOCCOCCOCCOCCOCCOCCC(=O)O

Columns and labels:
RSV-B/IZN45 = target: T1, RSV-B/IZN45 (Human respiratory syncytial virus B, UniProt O36634); test: biochemical; assay type: binding; conditions: RSV-B/IZN45
T1 construct: N-trimer Mimics Synthesized; made in house; host or cells: chemical peptide synthesis
Source text: (§1) IZN45 N-trimer mimic comprises the IZ domain, a highly soluble, designed coiled-coil that helps solubilize the N-trimer, along with the C-terminal (bottom) 45 residues of the RSV N-trimer. IZN45 encompasses the full ordered portion of the N-trimer except for three N-terminal residues (removed to maintain a continuous heptad repeat with the IZ domain). The interactions between 35-residue RSV C-peptides, T108 and T118 (Lambert et al., 1996, Proc. Natl. Acad. Sci. USA 93:2186-2191), and IZN45 was examined by surface plasmon resonance (SPR). SPR is a gold standard assay to measure the kinetics and affinity of biological interactions. […] The Biotinylated L-form of RSV target IZN45 was captured onto one lane of a NeutrAvidin coated SPR chip. A mutant version of IZN45 containing four mutated residues along the N-trimer groove designed to disrupt binding (IZN45 Full Mut, negative control) was captured onto a separate lane of the NeutrAvidin chip. T118, corresponding to the C-terminal portion of the RSV F ectodomain, which is known to interact with the RSV N-trimer groove, was flowed over the various surfaces. […] The surfaces were regenerated with a detergent (0.1% SDS) after each injection of analyte. Various concentrations of T118 were measured in duplicate or triplicate injections. D-peptide interactions with IZN45 and IZN45-Full Mut surfaces were also measured using this method.
(§2) Peptides from the ‘winning’ phage clones from each library were synthesized as D-peptides. If solubility of the peptides was limited, N- or C-terminal charged residue(s) (e.g., lysine) were attached as necessary as previously described for HIV peptides in Eckert et al., 1999, Cell 99:103-15, incorporated by reference in its entirety. Binding affinity and kinetics of the D-peptide inhibitors to the IZN45 and IZN45 mutants was characterized by SPR (Biacore 3000), using methods as described in Welch et al., 2007, Proc. Natl. Acad. Sci. USA 104:16828-33, incorporated by reference in its entirety.

RSV-A/IZN45 = target: T2, RSV-A/IZN45 (Human respiratory syncytial virus A, UniProt P03420); test: SPR binding to RSV-A IZN45 N-trimer mimic; conditions: Kd, RSV-A/IZN45
T2 construct: N-trimer Mimics Synthesized; made in house; host or cells: chemical peptide synthesis
Source text: as §1, §2

IZN45 = test: SPR binding to IZN45 N-trimer mimic, subtype not stated; parameters: species or system RSV
Source text: as §1, §2

RSV-A F protein = target: T3, RSV-A F protein (Human respiratory syncytial virus A, UniProt P03420); test: cell-based
T3 construct: expressed in transfected cells; host or cells: 293 T cells
Procedure: The RSV Syncytia reduction assay was used to evaluate D-peptide inhibitors of RSV entry (IC50). In brief, 293 T cell were plated in a 96-well plate and a 6-well plate. The cells in the 96-well plate were co-transfected with DNA encoding the RSV F protein (or RSV G protein as a negative control) and DNA encoding firefly luciferase downstream of multiple GAL4 binding sites (CheckMate Mammalian Two-Hybrid system, Promega). These cells were designated the effector cells. The cells in the 6-well plate were transfected with GAL4:Id and VP16:MyoD fusion constructs, which interact and drive gene expression in the presence of GAL4 binding sites. These cells were the target cells. At 24 hours post-transfection, the media is removed from the effector cells and D-peptide inhibitors at 2× concentration (diluted in fresh media) were added. Also at 24 hours post-transfection, the target cells are washed with PBS, gently dissociated from the 6-well plate using Versene (0.48 mM EDTA in PBS), and overlaid (at equal volume) onto the effector cells containing 2× inhibitor. At 48 h post-transfection, the cells are lysed using Glo Lysis Buffer (Promega). Bright Glo luciferase assay substrate is added and luminescent signal from expressed luciferase is measured. Luciferase is only expressed in effector cells that fuse (form syncytia) with target cells.

[1] = tested on: RSVA-IZN45 (SEQ ID NO: 34); conditions: Table 8 Result column
Source text: AC-K-(PEG4)DDG-RSVP32 (SEQ ID NO:142) is an affinity matured RSV N-trimer binder identified from phage display and represents an optimized binding solution from a disulfide constrained CX10C (disulfide constrained 10-mer) library based on the 20 natural amino acids. […] Using the co-crystal structure of RSVP32 (SEQ ID NO:31) and RSVA-IZN21 (SEQ ID NO:34), a molecular-modeling suite (ICM-Pro, MolSoft LLC) was used to model various natural and non-natural amino acid substitutions and calculate binding energies. The following parameters were used to calculate binding energy: electrostatic boundary element energy, H-bonds, solvation energy estimated as surface tension, and side-chain entropy.

RSV = conditions: high-risk infants; cited from earlier work
IZN45 Full Mut = IZN45 Full Mut (Human respiratory syncytial virus B, UniProt O36634, A170W/A177W/D194W/G184W/N197K); conditions: IZN45 Full Mut / IZN45_Mut, SPR
Source text: as §1, with “method. […]” for “method.”

HIV = conditions: standard viral passaging, escalating inhibitor; cited from earlier work
[2] = synthesized peptide, KD determined by SPR
[3] = running text/figure legend, IZN45 subtype not stated
[4] = (L) inhibitors of RSV, controls for D-peptide studies, assay not stated in Table 6, read-out: IC50
[5] = IC50, (L) inhibitors of RSV, controls for D-peptide studies, assay not stated in Table 6
[6] = subsequent trimer/compound made from peptide, SPR
[7] = IC50, subsequent trimer/compound made from peptide, syncytia reduction assay using RSV-A F protein

CC(=O)N[C@H](CCCCN)C(=O)NCCOCCOCCOCCOCCOCCOCCC(=O)NCC(=O)N[C@H](C)C(=O)N[C@@H]1CSSC[C@H](C(=O)N[C@H](C)C(=O)N[C@H](C)C(N)=O)NC(=O)[C@@H](Cc2c[nH]c3ccccc23)NC(=O)[C@@H](CC(=O)O)NC(=O)[C@@H](CC(C)C)NC(=O)[C@@H](CC(C)C)NC(=O)[C@@H](Cc2c[nH]c3ccccc23)NC(=O)[C@@H](Cc2c[nH]cn2)NC(=O)[C@H]2CCCN2C(=O)[C@@H](CCC(=O)O)NC(=O)[C@@H](CC(N)=O)NC(=O)[C@@H](CCCNC(=N)N)NC1=O [Ac-K(PEG6)-RSVP20] (Ac-[dK][PEG6]G[dA][dC][dR][dN][dE][dP][dH][dW][dL][dL][dD][dW][dC][dA][dA]-NH2; disulfide 5-16)
Kd (RSV-B/IZN45; [2]): 4.1 µM | Kd (RSV-A/IZN45; [2]): 3.7 µM | Kd (IZN45; b401, printed without unit): 3.7 µM | Kd (IZN45; [3]): 3.7 µM

CC(=O)N[C@H](CCCCN)C(=O)NCC(=O)NCC(=O)N[C@H](C)C(=O)N[C@@H]1CSSC[C@H](C(=O)N[C@H](C)C(=O)N[C@H](C)C(N)=O)NC(=O)[C@@H](Cc2c[nH]c3ccccc23)NC(=O)[C@@H](CC(=O)O)NC(=O)[C@@H](CC(C)C)NC(=O)[C@@H](CC(C)C)NC(=O)[C@@H](Cc2c[nH]c3ccccc23)NC(=O)[C@@H](Cc2c[nH]cn2)NC(=O)[C@H]2CCCN2C(=O)[C@@H](CCC(=O)O)NC(=O)[C@@H](CC(N)=O)NC(=O)[C@@H](CCCNC(=N)N)NC1=O [Ac-KG-RSVP20] (Ac-[dK]GG[dA][dC][dR][dN][dE][dP][dH][dW][dL][dL][dD][dW][dC][dA][dA]-NH2; disulfide 5-16)
IC50 (RSV-A F protein; IC50, synthesized peptide, syncytia reduction assay using RSV-A F protein): 673 µM

(biotin-PEG2)GKG-IKKEIEAIKKEQEAIKKKIEALEGEVNKIKSALLSTNKAVVSLSNGVSVLTSKVLDLKNYIDKQLLPIV-NH2 [(Biotin-PEG2)GKG-RSVA IZN48]
IC50 (RSV-A F protein; [4]): 0.215 µM

Ac-GECVN(HRG)PEWLLDWCGT-NH2 [SEQ ID NO: 147]
Decreased potency compared to RSVP32 [1]: 2.6-fold compared | potency [1]: 0.065 µM

Ac-GECVNQPEWLLDWCGT-NH2 [SEQ ID NO: 151]
Decreased potency compared to RSVP32 [1]: ~2-fold compared | potency [1]: 0.053 µM

Ac-GEVCRPEWLLDWCGT-NH2 [SEQ ID NO: 159]
Decreased potency compared to RSVP32 [1]: 14.4-fold | potency [1]: 0.36 µM

Ac-IKKEIEAIKKEQEAIKKKIEAIEKEVNKIKSALLSTNKAVVSLSNGVSVLTSKVLDLKNYIDKQLLPIV-NH2 [Ac-RSV-A IZN45]
IC50 (RSV-A F protein; [5]): 0.006 µM

GECVNRPEWLLDWCGT [RSVP32]
potency [1]: 0.025 µM

H-YGFDASISQVNEKINQSLAFIRKSDELLHNVNAGKST-NH2 [YG-T118]
IC50 (RSV-A F protein; [5]): 8 µM

I: Ac-YGFDASISQVNEKINQSLAFIRKSDELLHNVNAGKSTG[PEG6]KGKG-NH2 / II: Ac-YGFDASISQVNEKINQSLAFIRKSDELLHNVNAGKSTG[PEG6] / III: Ac-YGFDASISQVNEKINQSLAFIRKSDELLHNVNAGKSTG[PEG6] (amide I:40-II:C, I:42-III:C) [YG-T118-Tricasso]
IC50 (RSV-A F protein; [5]): 0.65 µM

I: Ac-[dK][PEG6]G[dA][dC][dR][dN][dE][dP][dH][dW][dL][dL][dD][dW][dC][dA][dA]-NH2 / II: Ac-[dK][PEG6]G[dA][dC][dR][dN][dE][dP][dH][dW][dL][dL][dD][dW][dC][dA][dA]-NH2 / III: Ac-[dK][PEG6]G[dA][dC][dR][dN][dE][dP][dH][dW][dL][dL][dD][dW][dC][dA][dA]-NH2 (linker I:1-II:1-III:1 via X1; disulfide I:5-I:16, II:5-II:16, III:5-III:16; C-terminus assumed) [Ac-K(PEG6)-RSVP20-trimer]
Kd (RSV-B/IZN45; [6]): 0.0017 µM | Kd (RSV-A/IZN45; [6]): 0.0003 µM | Kd (IZN45; [3]): 0.0003 µM | improvement in binding affinity of trimer over the corresponding monomer (IZN45; trimerization): 10,000 fold

I: Ac-[dK][PEG6]G[dH][dA][dC][dV][dN][dR][dP][dE][dW][dL][dL][dD][dW][dC]G[dR]G[dR][dR]-NH2 / II: Ac-[dK][PEG6]G[dH][dA][dC][dV][dN][dR][dP][dE][dW][dL][dL][dD][dW][dC]G[dR]G[dR][dR]-NH2 / III: Ac-[dK][PEG6]G[dH][dA][dC][dV][dN][dR][dP][dE][dW][dL][dL][dD][dW][dC]G[dR]G[dR][dR]-NH2 (linker I:1-II:1-III:1 via X1; disulfide I:6-I:17, II:6-II:17, III:6-III:17) [Ac-K(PEG6)G-RSVP26-GRR-trimer]
IC50 (RSV-A F protein; [7]): 5.5 µM

I: Ac-[dK][PEG6][dD][dD]G[dS][dM][dC][dV][dN][dR][dP][dE][dW][dL][dL][dD][dW][dC]G[dT]-NH2 / II: Ac-[dK][PEG6][dD][dD]G[dS][dM][dC][dV][dN][dR][dP][dE][dW][dL][dL][dD][dW][dC]G[dT]-NH2 / III: Ac-[dK][PEG6][dD][dD]G[dS][dM][dC][dV][dN][dR][dP][dE][dW][dL][dL][dD][dW][dC]G[dT]-NH2 (linker I:1-II:1-III:1 via X1; disulfide I:8-I:19, II:8-II:19, III:8-III:19) [Ac-K(PEG6)DDG-RSVP24-trimer]
IC50 (RSV-A F protein; [7]): 5.5 µM

I: Ac-[dS][dM][dC][dV][dN][dR][dP][dE][dW][dL][dL][dD][dW][dC]G[dT]G[dD][dD][PEG6][dK]-NH2 / II: Ac-[dS][dM][dC][dV][dN][dR][dP][dE][dW][dL][dL][dD][dW][dC]G[dT]G[dD][dD][PEG6][dK]-NH2 / III: Ac-[dS][dM][dC][dV][dN][dR][dP][dE][dW][dL][dL][dD][dW][dC]G[dT]G[dD][dD][PEG6][dK]-NH2 (disulfide I:3-I:14, II:3-II:14, III:3-III:14; linker I:21-II:21-III:21 via X1; C-terminus assumed) [Ac-RSVP24-GDD(PEG6)K-trimer]
IC50 (RSV-A F protein; [7]): 4.6 µM

LEGEVNKIKSALLSTNKAVVSLSNGVSVLTSKVLDLKNYIDKQLLPIVNIKKEIEAIKKEQEAIKKKIEAI-GKG-(Glu-biotinyl-PEG)-NH2 [RSVA N49IZ-GKG(Glu-Biotinyl-PEG)]
IC50 (RSV-A F protein; [4]): 0.102 µM

Synagis: monoclonal antibody (mAb) given prophylactically throughout RSV season
reduction of hospitalizations (RSV): 55%

T118: 35-residue RSV C-peptide corresponding to the C-terminal portion of the RSV F ectodomain (FDASISQVNEKINQSLAFIRKSDELLHNVNAGKST)
binding to mutant control target (IZN45 Full Mut): did not bind

enfuvirtide
time in which resistance develops (HIV): 2-3 weeks
